# What was measured:
# renal distal tubules [1] = assay: Intracellular Na+ imaging by 2-photon microscopy in SBFI-loaded live kidney slices ex vivo; format: cell-based, mice; settings: for rFGF23-induced increase in intracellular Na^+ fluorescence (distal tubular Na^+ uptake): co-treatment with 200 ng/ml rFGF23, 2 h, iFGFR pan 120 nM; for decrease of SFBI fluorescence intensity in distal tubules: rFGF23-treated WT kidney slices, CTZ 10 µM
# Method: (§1) The preparation of kidney slices for ex vivo experiments was performed as described in Andrukhova O et al. (EMBO J., 2014. 33, 229-246). Longitudinal 200-µm-thick live slices from freshly isolated kidneys of 3-month-old male WT and Klotho/VDR mice were prepared using a Leica VT1000 Vibratome (Leica Microsystems), and were used for ex vivo treatment with various substances as described below.
# (§2) Longitudinal 200-µm-thick live slices of freshly isolated kidneys were prepared using a Leica VT1000 Vibratome (Leica Microsystems). For Na^+ imaging, the kidney slices of WT and Klotho/VDR mice were incubated for 60 min at 37°C with 2 µM of the sodium-sensitive dye SBFI (Molecular Probes), diluted in DMSO (Merck Millipore International) and 20% Pluronic (Merck Millipore International). For Ca^2+ imaging, the kidney slices were incubated for 30 min at 37°C with 2 µM of the calcium-sensitive dye Fluo-4 (Molecular Probes), diluted in DMSO and 20% Pluronic. Thereafter, the slices were washed two times for 20 min each in 0.1M PBS, and were subsequently incubated in vitro with vehicle (PBS), rFGF23 R176/179Q [(100 or 200 ng/ml) kindly provided by Amgen Inc., Thousand Oaks, CA, USA], PD173074 (Sigma-Aldrich) (10 nM for inhibiting FGFR1 and 25 nM for inhibiting FGFR1 and 3), pan FGFR inhibitor [(120 nM) FIIN1 hydrochloride, Tocris Bioscience, Bristol, UK)], WNK signalling inhibitor Closantel (30 ng/mL, generous gift of Dario R. Alessi) alone or combined at 37°C, 5% CO2 / 95% air humidified atmosphere for 2 h. […] For visualization of intracellular Na^+ and Ca^2+ content, SBFI or Fluo-4 were excited by a Ti:sapphire laser (Chameleon, Coherent Inc.) at 820 nm. Images (512 × 512 pixels) were acquired every 30 sec at a depth of 60 - 80 µm. Fluorescence images were analyzed using Image J software. The whole epithelial layer of the distal tubules was selected by manually drawing the region of interest (ROI) to quantify intracellular Na^+ and Ca^2+ levels. Fluorescence intensity was quantified in 4-9 ROIs per image, and the ratio between the fluorescence intensity and the ROI area was calculated for each tubule. This ratio was used for all subsequent calculations.
# (§3) To gain more insight into the functional role of the rFGF23-induced increase in distal renal tubular ion channel expression and the FGF receptors involved, we performed intracellular Ca^2+ and Na^+ imaging by 2-photon microscopy in Fluo-4- or SFBI-loaded and subsequently rFGF23-treated (100 or 200 ng/ml for 2 h), 200-µm-thick renal slices prepared from WT and Klotho/VDR mice.
# (§4) In this example it was assessed whether the Klotho-independent FGF23 signalling pathway is mediated through FGFR3 and/or 4, given that FGFR2 expression was low in distal renal tubules (Figure 12A). To dissect between the latter receptors, Klotho/VDR kidney slices were treated with rFGF23 alone or in combination with an FGFR1/FGFR3 inhibitor and the WNK signalling inhibitor closantel.
# WNK-SPAK binding = WNK-SPAK binding (Homo sapiens, UniProt Q9UEW8); settings: literature (Mori et al. 2013); cited from earlier work
# SPAK = SPAK (Homo sapiens, UniProt Q9UEW8); settings: dose-dependent manner; literature (Yamada et al. 2016; Mori et al. 2013); cited from earlier work
# OSR1 = settings: dose-dependent manner; literature (Yamada et al. 2016); cited from earlier work
# renal distal tubules [2] = assay: Intracellular Ca2+ imaging by 2-photon microscopy in Fluo-4-loaded live kidney slices ex vivo; format: cell-based, mice; settings: co-treatment with 200 ng/ml rFGF23, 2 h, iFGFR pan 120 nM
# Method: as §1, §2, §3, §4
# TRPV5 = TRPV5 (Homo sapiens, UniProt Q9NQA5); settings: 1 µM; literature (Nilius et al. 2001); cited from earlier work
# TRPV6 = molecular target: T1, TRPV6 (Homo sapiens, UniProt Q9H1D0); settings: 1 µM; literature (Nilius et al. 2001); cited from earlier work
# T1 sequence (Q9H1D0 1-765): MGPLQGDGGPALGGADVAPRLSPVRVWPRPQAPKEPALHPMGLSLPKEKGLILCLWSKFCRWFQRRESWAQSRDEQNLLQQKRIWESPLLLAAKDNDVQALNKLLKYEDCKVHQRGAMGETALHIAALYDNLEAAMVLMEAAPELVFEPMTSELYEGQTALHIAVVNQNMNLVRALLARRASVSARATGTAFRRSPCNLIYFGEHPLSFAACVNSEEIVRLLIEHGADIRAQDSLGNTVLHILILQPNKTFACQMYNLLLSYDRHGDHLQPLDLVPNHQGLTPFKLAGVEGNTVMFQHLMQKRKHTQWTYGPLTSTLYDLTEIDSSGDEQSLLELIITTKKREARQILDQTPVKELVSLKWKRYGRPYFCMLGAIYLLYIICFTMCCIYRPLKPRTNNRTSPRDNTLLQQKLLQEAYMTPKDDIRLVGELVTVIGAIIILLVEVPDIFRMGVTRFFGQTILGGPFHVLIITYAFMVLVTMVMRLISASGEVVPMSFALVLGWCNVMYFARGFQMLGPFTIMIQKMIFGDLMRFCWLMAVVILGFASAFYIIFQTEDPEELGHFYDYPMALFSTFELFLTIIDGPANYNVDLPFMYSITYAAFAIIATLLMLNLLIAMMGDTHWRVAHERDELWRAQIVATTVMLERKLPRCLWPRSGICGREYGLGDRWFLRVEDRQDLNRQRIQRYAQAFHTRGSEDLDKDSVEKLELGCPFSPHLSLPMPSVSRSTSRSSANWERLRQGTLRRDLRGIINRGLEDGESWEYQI
# 5/6 Nx C57BL/6 mice = assay: 5/6 nephrectomy with angiotensin II infusion via osmotic mini-pumps; format: in vivo; settings: AngII- vs. vehicle-treated 5/6-Nx mice, 4 and 8 weeks postsurgery
# Method: The 5/6 nephrectomy (5/6 Nx) was performed in two stages (Leelahavanichkul A et al., Kidney Int. 78, 2010. 1136-1153) under isoflurane anesthesia (Fig. 1A). Pain was managed by s.c. injections of buprenorphine, metamizol and meloxicam. Additionally, the animals were treated for 3 days postsurgery with the analgesic piritramid via the drinking water, starting 6 h postsurgery. At the first stage (wk -1), the left kidney was decapsulated to avoid ureter and adrenal damage, and the upper and lower poles were partially resected via a left flank incision. Bleeding was controlled by microfibrillar collagen hemostasis (Avitene, Davol, Cranston, RI). The upper and lower poles were weighed. One week later, the entire right kidney was removed via a right flank incision and weighed. Animals with insufficient kidney resection as determined by a ratio of < 0.55 for the removed left kidney weight to the removed right kidney weight were euthanized. In the Sham surgery control mice, a left flank incision was performed at step 1, both poles of kidney were identified, then the flank incision was closed; a subsequent right flank incision was performed at step 2; the right renal artery was identified, then the flank incision was closed. After each flank incision, muscles and skin were repositioned and sewed. Mortality was tracked throughout the study. Necropsy was not performed on animals that died early.
# Angiotensin II (Ang II) 0.75 µg/kg/min (Sigma) in physiological saline or vehicle was infused by subcutaneous osmotic mini-pumps (Alzet model 1004, Cupertino, CA) (Leelahavanichkul A et al., Kidney Int. 78, 2010. 1136-1153). The osmotic minipumps were inserted subcutaneously at the back under isoflurane anesthesia at 5 days after right NX or Sham surgery (Fig. 1A).
# In order to test susceptibility of C57BL/6 mice to 5/6 nephrectomy (5/6-Nx)- and angiotensin II (AngII) infusion-induced CKD, 5/6-Nx was performed and osmotic minipumps continuously releasing vehicle or AngII were thereafter implanted into male wild-type (WT) C57Bl/6 mice, which were then monitored over 8 weeks after 5/6-Nx. All mice were maintained on rescue diet.
# [3] = Klotho/VDR kidney slices, closantel 30 ng/mL, BF 15 µM, PD173074 10 nM (iFGFR1) or 25 nM (FGFR1/3)
# [4] = WT kidney slices, iFGFR1 PD173074 10 nM
# [5] = Klotho/VDR kidney slices, ruthenium red 10 µM, closantel 30 ng/mL, PD173074 10 nM (iFGFR1) or 25 nM (FGFR1/3)
# [6] = WT kidney slices, ruthenium red 1 µM, iFGFR1 PD173074 10 nM
# Sequence of TRPV5 (Q9NQA5 whole entry, species assumed): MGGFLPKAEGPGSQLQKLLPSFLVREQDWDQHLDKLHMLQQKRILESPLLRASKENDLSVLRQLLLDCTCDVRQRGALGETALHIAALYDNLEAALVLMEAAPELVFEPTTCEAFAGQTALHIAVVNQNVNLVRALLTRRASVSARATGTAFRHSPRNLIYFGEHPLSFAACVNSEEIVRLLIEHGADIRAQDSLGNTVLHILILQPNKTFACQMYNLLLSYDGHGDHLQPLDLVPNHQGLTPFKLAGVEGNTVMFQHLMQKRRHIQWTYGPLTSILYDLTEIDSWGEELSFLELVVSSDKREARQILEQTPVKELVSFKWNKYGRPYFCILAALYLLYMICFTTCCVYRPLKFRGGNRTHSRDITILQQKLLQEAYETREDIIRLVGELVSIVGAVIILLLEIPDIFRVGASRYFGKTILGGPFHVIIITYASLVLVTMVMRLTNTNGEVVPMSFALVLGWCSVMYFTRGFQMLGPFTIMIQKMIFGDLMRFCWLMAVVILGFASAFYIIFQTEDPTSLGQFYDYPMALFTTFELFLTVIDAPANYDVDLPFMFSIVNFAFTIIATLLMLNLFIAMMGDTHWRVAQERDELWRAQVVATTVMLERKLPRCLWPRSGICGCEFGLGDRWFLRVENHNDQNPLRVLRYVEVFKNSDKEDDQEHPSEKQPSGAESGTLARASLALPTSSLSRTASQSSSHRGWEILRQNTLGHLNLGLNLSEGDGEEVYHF
compound,measurement,setting,value
"CCCCNc1cc(C(=O)O)cc(S(N)(=O)=O)c1Oc1ccccc1 [BF, bumetanide]",rFGF23-induced increase in intracellular Na^+ fluorescence (distal tubular Na^+ uptake),renal distal tubules [1]; [3],inhibited
same,decrease of SFBI fluorescence intensity in distal tubules,renal distal tubules [1]; BF 15 µM,approximately 50%
"NS(=O)(=O)c1cc2c(cc1Cl)N=CNS2(=O)=O [CTZ, chlorothiazide]",decrease of SFBI fluorescence intensity in distal tubules,renal distal tubules [1]; BF 15 µM,approximately 50%
"CCOc1ccc2nc3cc(NCc4ccco4)ccc3c(N)c2c1 [STOCK2S-26016, 7-Ethoxy-N3-(2-furanylmethyl)-3,9-acridinediamine]",WNK-SPAK binding,WNK-SPAK binding,preventing
same,SPAK phosphorylation,SPAK,preventing
"CC(C)(C)NC(=O)c1cncn1C1CCN(c2ccc(-c3nnc(C(F)(F)F)o3)cn2)CC1 [WNK463, N-tert-butyl-3-[1-[5-[5-(trifluoromethyl)-1,3,4-oxadiazol-2-yl]pyridin-2-yl]piperidin-4-yl]imidazole-4-carboxamide]",OSR1 phosphorylation,OSR1,decreases
same,SPAK phosphorylation,SPAK,decreases
"CCN(CC)CCCCNc1ncc2cc(-c3cc(OC)cc(OC)c3)c(NC(=O)NC(C)(C)C)nc2n1 [iFGFR1, PD173074]",rFGF23-induced increase in intracellular Na^+ fluorescence (distal tubular Na^+ uptake),renal distal tubules [1]; [3],no effect
same,rFGF23-induced increase in intracellular Na^+ fluorescence (distal tubular Na^+ uptake),"renal distal tubules [1]; Klotho/VDR kidney slices, closantel 30 ng/mL, BF 15 µM, PD173074 10 nM (iFGFR1) or 25 nM (FGFR1/3), listed as FGFR1/3 inhibitor",completely blocked
same,rFGF23-induced increase in intracellular Na^+ fluorescence (distal tubular Na^+ uptake),renal distal tubules [1]; [4],largely blocked
same,rFGF23-induced increase in intracellular Ca^2+ fluorescence (distal tubular Ca^2+ uptake),renal distal tubules [2]; [5],no effect
same,rFGF23-induced increase in intracellular Ca^2+ fluorescence (distal tubular Ca^2+ uptake),"renal distal tubules [2]; Klotho/VDR kidney slices, ruthenium red 10 µM, closantel 30 ng/mL, PD173074 10 nM (iFGFR1) or 25 nM (FGFR1/3), listed as FGFR1/3 inhibitor",partially blocked
same,rFGF23-induced increase in intracellular Ca^2+ fluorescence (distal tubular Ca^2+ uptake),renal distal tubules [2]; [6],largely blocked
"C=CC(=O)Nc1cccc(CN2C(=O)N(c3c(Cl)c(OC)cc(OC)c3Cl)Cc3cnc(NCCCCN(CC)CC)nc32)c1.Cl [iFGFR pan, FIIN1 hydrochloride]",rFGF23-induced increase in intracellular Na^+ fluorescence (distal tubular Na^+ uptake),renal distal tubules [1]; [3],completely blocked
same,rFGF23-induced increase in intracellular Na^+ fluorescence (distal tubular Na^+ uptake),renal distal tubules [1]; [4],completely blocked
same,rFGF23-induced increase in intracellular Ca^2+ fluorescence (distal tubular Ca^2+ uptake),renal distal tubules [2]; [5],completely blocked
same,rFGF23-induced increase in intracellular Ca^2+ fluorescence (distal tubular Ca^2+ uptake),renal distal tubules [2]; [6],completely blocked
N.N.N.N.N.N.N.N.N.N.N.N.N.N.[Cl-].[Cl-].[Cl-].[Cl-].[Cl-].[Cl-].[O-2].[O-2].[Ru+3].[Ru+3].[Ru+4] [ruthenium red],TRPV5 channel function,TRPV5,block
same,TRPV6 channel function,TRPV6,not
same,rFGF23-induced increase in intracellular Ca^2+ fluorescence (distal tubular Ca^2+ uptake),renal distal tubules [2]; [5],antagonize
same,rFGF23-induced increase in intracellular Ca^2+ fluorescence (distal tubular Ca^2+ uptake),renal distal tubules [2]; [6],reversed
"Angiotensin II (DRVYIHPF; Angiotensin-2; UniProt P01019 25-32, looked up) [AngII, Angiotensin II (Sigma) infused by subcutaneous osmotic mini-pumps]",GFR,5/6 Nx C57BL/6 mice; 0.75 µg/kg/min s.c. infusion,no significant differences
same,azotemia,5/6 Nx C57BL/6 mice,no significant differences
same,mean arterial pressure measured by arterial catheterization,5/6 Nx C57BL/6 mice,no significant differences
same,proteinuria,5/6 Nx C57BL/6 mice,no significant differences

# Source: patent publication EP3403652A1, “PREVENTION AND TREATMENT OF FIBROBLAST GROWTH FACTOR 23 (FGF23)-ASSOCIATED DISORDERS INCLUDING CHRONIC KIDNEY DISEASE (CKD)” (Veterinärmedizinische Universität Wien, priority 2017, dated 2018)
